Patent publication EP0946179B1 (ELI LILLY AND COMPANY, priority 1996, dated 1997)

How the values were obtained:
5-HT1C receptor = target: T1, 5-HT1C receptor (Homo sapiens, UniProt P28335); assay: pharmacological studies, 5-HT1C receptor activity
T1 sequence (P28335 33-458): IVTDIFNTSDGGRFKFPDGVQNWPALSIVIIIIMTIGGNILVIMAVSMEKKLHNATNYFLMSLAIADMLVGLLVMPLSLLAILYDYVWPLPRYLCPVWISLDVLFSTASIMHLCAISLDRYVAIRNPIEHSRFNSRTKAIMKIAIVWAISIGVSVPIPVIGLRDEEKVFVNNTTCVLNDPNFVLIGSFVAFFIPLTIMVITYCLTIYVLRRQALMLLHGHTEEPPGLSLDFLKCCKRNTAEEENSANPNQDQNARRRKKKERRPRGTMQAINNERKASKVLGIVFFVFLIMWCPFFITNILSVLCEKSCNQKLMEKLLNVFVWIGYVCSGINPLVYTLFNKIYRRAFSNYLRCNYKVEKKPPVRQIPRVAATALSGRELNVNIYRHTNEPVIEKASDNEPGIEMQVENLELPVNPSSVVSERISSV

[1] = double-blind multicenter clinical trial, olanzapine versus placebo; type: in vivo; details: patients randomized to olanzapine or placebo
Text: A double-blind multicenter clinical trial was designed to assess the safety and efficacy of olanzapine. Patients were randomized to olanzapine or placebo.

[2] = tested on: muscarinic cholinergic receptor; assay: pharmacological studies, muscarinic receptor activity

## Cc1cc2c(s1)Nc1ccccc1N=C2N1CCN(C)CC1 [olanzapine, 2-methyl-4-(4-methyl-1-piperazinyl)-10H-thieno[2,3-b][1,5] benzodiazepine]
5-HT1C receptor
  activity at the 5-HT1C receptor: active
[1]
  usefulness for the treatment of autism: can be useful for the treatment of autism
  usefulness for the treatment of mental retardation: can be useful for the treatment of mental retardation
[2]
  muscarinic cholinergic receptor activity: has muscarinic cholinergic receptor activity
